Results published in patent US20090304692A1, “TRIAZINE COMPOUNDS AS PI3 KINASE AND MTOR INHIBITORS” (Wyeth, priority 2008, published 2009).
pIC50: −log10 of the molar value. Where two headings read alike, the source gives them in different places.

Tests used:
[1] = biological target: Human mTOR (FLAG-TOR) (Homo sapiens, UniProt P42345); test: mTOR kinase assay (DELFIA format, purified enzyme); assay type: biochemical; details: read-out: IC50 mTOR
[2] = system: human breast MDA-MB-361 tumor cell line; test: In vitro cell culture growth assay (MTS), MDA-MB-361; assay type: cell-based; details: Homo sapiens, MTS cell growth assay, three days after drug treatment, MDA-MB-361 cells, read-out: IC50 MDA-MB-361
[3] = system: human prostate PC3-mm2 tumor cell line; test: In vitro cell culture growth assay (MTS), PC3-mm2; assay type: cell-based; details: Homo sapiens, PC3MM2, 72 h, MTS cell growth assay, three days after drug treatment, PC3-mm2 cells; read-out: IC50 PC3-mm2
[4] = biological target: PI3K-α (Homo sapiens, UniProt P42336); test: PI3K-alpha fluorescence polarization assay
[5] = biological target: PI3K-γ (Homo sapiens, UniProt P48736); test: PI3K-gamma fluorescence polarization assay
PI3K-γ, sequence (P48736 whole entry, species assumed): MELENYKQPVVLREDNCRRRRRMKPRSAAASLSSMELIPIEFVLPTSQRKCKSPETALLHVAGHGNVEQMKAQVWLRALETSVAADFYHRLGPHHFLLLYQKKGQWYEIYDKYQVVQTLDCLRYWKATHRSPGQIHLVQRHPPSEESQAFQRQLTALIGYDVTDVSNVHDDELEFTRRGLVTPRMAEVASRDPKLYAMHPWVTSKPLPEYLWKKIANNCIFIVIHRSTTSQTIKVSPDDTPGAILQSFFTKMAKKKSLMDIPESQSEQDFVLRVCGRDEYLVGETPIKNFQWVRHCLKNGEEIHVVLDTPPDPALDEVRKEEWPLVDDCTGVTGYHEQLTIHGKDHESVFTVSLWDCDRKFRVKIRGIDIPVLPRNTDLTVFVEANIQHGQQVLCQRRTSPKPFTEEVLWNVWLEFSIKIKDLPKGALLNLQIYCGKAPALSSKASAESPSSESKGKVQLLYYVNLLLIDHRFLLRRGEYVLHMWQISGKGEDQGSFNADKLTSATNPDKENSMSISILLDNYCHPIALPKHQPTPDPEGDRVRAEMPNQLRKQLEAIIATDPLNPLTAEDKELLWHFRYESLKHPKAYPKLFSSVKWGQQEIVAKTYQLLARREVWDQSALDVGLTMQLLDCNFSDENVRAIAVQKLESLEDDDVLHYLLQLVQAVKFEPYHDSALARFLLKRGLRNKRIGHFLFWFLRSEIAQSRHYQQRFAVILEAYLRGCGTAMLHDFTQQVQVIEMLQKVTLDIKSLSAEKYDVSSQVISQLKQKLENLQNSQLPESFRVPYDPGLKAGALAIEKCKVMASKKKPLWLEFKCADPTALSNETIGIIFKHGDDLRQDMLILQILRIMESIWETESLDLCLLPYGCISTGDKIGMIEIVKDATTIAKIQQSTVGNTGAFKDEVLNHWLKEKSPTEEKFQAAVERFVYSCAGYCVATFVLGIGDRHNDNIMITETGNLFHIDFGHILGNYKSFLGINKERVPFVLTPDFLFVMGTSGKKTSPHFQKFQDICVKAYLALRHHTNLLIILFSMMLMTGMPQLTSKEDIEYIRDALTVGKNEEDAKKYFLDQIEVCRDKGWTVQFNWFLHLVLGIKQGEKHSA

PI3K-α, sequence (P42336 whole entry, species assumed): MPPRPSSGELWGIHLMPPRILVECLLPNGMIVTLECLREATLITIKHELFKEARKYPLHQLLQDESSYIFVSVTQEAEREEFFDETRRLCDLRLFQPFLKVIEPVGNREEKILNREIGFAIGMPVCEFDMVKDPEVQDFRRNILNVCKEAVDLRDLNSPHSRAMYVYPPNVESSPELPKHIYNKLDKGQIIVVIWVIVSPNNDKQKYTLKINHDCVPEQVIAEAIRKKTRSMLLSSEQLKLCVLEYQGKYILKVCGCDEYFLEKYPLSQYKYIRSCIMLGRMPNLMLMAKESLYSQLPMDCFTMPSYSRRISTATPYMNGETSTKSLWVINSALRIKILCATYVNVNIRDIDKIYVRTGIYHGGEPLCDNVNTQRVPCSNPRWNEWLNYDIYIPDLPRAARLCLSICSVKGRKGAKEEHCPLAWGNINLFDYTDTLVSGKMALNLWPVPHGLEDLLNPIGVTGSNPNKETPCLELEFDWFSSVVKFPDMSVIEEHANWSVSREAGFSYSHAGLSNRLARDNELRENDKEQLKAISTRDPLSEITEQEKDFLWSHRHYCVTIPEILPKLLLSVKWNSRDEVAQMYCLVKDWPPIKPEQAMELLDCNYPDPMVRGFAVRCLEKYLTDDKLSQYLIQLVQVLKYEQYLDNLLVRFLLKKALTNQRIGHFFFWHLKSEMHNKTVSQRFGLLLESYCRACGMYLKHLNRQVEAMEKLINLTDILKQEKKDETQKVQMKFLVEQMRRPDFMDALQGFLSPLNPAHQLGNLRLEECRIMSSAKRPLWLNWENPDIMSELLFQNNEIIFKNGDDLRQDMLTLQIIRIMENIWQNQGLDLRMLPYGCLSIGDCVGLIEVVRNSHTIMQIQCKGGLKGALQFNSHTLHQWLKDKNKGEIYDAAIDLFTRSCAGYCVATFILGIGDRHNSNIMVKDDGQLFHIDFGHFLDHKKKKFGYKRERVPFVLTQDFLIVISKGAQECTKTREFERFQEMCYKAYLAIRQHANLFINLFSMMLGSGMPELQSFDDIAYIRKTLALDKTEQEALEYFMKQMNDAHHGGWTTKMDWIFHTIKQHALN
PI3K-α, sequence (P27986 whole entry partner, species assumed): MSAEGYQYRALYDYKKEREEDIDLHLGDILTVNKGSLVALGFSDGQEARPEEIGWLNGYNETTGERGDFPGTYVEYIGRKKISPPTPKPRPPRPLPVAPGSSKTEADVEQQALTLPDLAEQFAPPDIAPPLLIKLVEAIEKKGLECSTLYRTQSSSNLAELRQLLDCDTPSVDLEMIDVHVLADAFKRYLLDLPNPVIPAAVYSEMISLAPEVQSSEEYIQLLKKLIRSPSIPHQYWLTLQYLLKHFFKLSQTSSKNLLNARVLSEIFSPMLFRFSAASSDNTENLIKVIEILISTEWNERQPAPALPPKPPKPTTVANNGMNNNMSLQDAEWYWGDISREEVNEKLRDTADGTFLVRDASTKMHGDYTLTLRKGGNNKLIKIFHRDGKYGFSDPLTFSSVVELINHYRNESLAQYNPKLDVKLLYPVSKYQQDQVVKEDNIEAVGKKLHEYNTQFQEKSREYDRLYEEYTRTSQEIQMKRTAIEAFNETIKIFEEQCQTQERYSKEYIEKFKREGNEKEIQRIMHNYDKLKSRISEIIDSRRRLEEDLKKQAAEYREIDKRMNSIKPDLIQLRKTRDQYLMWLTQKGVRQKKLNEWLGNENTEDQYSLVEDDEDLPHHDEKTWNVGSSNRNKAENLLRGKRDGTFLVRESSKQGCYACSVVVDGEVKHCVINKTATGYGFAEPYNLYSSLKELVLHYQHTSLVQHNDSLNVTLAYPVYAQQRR
Human mTOR (FLAG-TOR), sequence (P42345 1360-2549 limits assumed): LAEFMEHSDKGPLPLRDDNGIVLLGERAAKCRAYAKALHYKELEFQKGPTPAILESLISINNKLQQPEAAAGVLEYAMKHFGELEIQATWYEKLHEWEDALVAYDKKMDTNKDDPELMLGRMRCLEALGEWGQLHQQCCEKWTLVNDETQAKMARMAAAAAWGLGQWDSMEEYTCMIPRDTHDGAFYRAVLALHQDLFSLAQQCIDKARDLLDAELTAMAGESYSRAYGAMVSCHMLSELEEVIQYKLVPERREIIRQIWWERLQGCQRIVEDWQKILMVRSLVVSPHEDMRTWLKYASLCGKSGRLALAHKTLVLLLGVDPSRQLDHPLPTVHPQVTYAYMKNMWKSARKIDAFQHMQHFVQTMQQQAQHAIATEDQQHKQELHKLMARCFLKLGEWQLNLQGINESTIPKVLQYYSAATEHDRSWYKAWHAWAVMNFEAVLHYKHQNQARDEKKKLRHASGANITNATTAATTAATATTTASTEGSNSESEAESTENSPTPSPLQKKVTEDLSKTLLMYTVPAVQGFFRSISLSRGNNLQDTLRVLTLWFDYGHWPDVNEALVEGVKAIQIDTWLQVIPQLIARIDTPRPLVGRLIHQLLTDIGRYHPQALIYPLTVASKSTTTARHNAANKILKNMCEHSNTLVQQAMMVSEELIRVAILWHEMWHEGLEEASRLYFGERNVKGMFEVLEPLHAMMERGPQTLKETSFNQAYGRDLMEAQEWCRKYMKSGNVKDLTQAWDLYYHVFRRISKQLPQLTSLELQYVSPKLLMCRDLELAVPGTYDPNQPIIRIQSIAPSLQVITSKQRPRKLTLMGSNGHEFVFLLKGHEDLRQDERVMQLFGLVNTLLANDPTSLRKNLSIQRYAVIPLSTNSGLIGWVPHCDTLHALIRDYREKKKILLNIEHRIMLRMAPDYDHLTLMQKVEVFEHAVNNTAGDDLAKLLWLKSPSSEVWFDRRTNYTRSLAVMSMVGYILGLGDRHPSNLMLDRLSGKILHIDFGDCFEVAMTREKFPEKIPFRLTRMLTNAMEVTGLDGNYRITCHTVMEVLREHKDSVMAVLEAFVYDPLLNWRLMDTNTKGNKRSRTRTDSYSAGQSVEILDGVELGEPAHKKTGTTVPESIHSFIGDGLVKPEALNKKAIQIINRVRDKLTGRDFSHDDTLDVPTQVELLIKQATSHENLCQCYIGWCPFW

Row | Structure (SMILES) | pIC50 [1] | pIC50 ([2]; MDA-MB-361, 72 h) | pIC50 [3] | pIC50 ([4]; read-out: IC50 PI3Kα) | pIC50 ([5]; read-out: IC50 PI3Kγ) | pIC50 ([2]; 72 h) | pIC50 [4] | pIC50 [5]
1 | CC(C)N1CCN(C(=O)c2ccc(NC(=O)Nc3ccc(-c4nc(N5CCCC5)nc(N5CCOCC5)n4)cc3)cc2)CC1 [Example 603, 1-(4-{[4-(1-methylethyl)piperazin-1-yl]carbonyl}phenyl)-3-[4-(4-morpholin-4-yl-6-pyrrolidin-1-yl-1,3,5-triazin-2-yl)phenyl]urea] | 7.77 | 7.77 | 6.86 | 8.07 | 7.30 | – | – | –
2 | CN(C)CCN(C)C(=O)c1ccc(NC(=O)Nc2ccc(-c3nc(N4CCCC4)nc(N4CCOCC4)n3)cc2)cc1 [Example 604, N-[2-(dimethylamino)ethyl]-N-methyl-4-({[4-(4-morpholin-4-yl-6-pyrrolidin-1-yl-1,3,5-triazin-2-yl)phenyl]carbamoyl}amino)benzamide] | 8.00 | – | 7.14 | 8.46 | 7.26 | 8.40 | – | –
3 | CN(C)CCNC(=O)c1ccc(NC(=O)Nc2ccc(-c3nc(N4CCCC4)nc(N4CCOCC4)n3)cc2)cc1 [Example 608, N-[2-(dimethylamino)ethyl]-4-({[4-(4-morpholin-4-yl-6-pyrrolidin-1-yl-1,3,5-triazin-2-yl)phenyl]carbamoyl}amino)benzamide] | 8.30 | – | 6.53 | 8.05 | 6.97 | 7.28 | – | –
4 | C[C@H]1COCCN1c1nc(-c2ccc(NC(=O)Nc3ccncc3)cc2)nc(N2CCOC[C@@H]2C)n1 [Example 609, 1-(4-{4,6-bis[(3S)-3-methylmorpholin-4-yl]-1,3,5-triazin-2-yl}phenyl)-3-pyridin-4-ylurea] | 8.52 | 7.62 | 7.59 | – | – | – | 7.94 | 7.03
5 | CN(C)CCCNC(=O)c1ccc(NC(=O)Nc2ccc(-c3nc(N4CCCCC4)nc(N4CCOCC4)n3)cc2)cc1 [Example 610, N-[3-(dimethylamino)propyl]-4-({[4-(4-morpholin-4-yl-6-piperidin-1-yl-1,3,5-triazin-2-yl)phenyl]carbamoyl}amino)benzamide] | 8.30 | – | 6.53 | 8.46 | 7.30 | 7.55 | – | –

Continued, values first:

Row | pIC50 [1] | pIC50 ([2]; MDA-MB-361, 72 h) | pIC50 [3] | pIC50 ([4]; read-out: IC50 PI3Kα) | pIC50 ([5]; read-out: IC50 PI3Kγ) | pIC50 ([2]; 72 h) | pIC50 [4] | pIC50 [5] | Structure (SMILES)
6 | 8.52 | – | 7.04 | 8.66 | 7.34 | 8.15 | – | – | CN(C)CCN(C)C(=O)c1ccc(NC(=O)Nc2ccc(-c3nc(N4CCCCC4)nc(N4CCOCC4)n3)cc2)cc1 [Example 605, N-[2-(dimethylamino)ethyl]-N-methyl-4-({[4-(4-morpholin-4-yl-6-piperidin-1-yl-1,3,5-triazin-2-yl)phenyl]carbamoyl}amino)benzamide]
7 | 7.59 | 7.55 | 6.76 | 7.92 | 7.06 | – | – | – | CCN1CCN(C(=O)c2ccc(NC(=O)Nc3ccc(-c4nc(N5CCCC5)nc(N5CCOCC5)n4)cc3)cc2)CC1 [Example 606, 1-{4-[(4-ethylpiperazin-1-yl)carbonyl]phenyl}-3-[4-(4-morpholin-4-yl-6-pyrrolidin-1-yl-1,3,5-triazin-2-yl)phenyl]urea]
8 | 7.72 | 7.62 | 6.67 | 7.92 | 7.03 | – | – | – | CN1CCN(C(=O)c2ccc(NC(=O)Nc3ccc(-c4nc(N5CCCC5)nc(N5CCOCC5)n4)cc3)cc2)CC1 [Example 607, 1-{4-[(4-methylpiperazin-1-yl)carbonyl]phenyl}-3-[4-(4-morpholin-4-yl-6-pyrrolidin-1-yl-1,3,5-triazin-2-yl)phenyl]urea]
9 | 7.89 | – | 6.24 | 7.73 | 6.82 | 6.71 | – | – | COCCNC(=O)c1ccc(NC(=O)Nc2ccc(-c3nc(N4CCCCC4)nc(N4CCOCC4)n3)cc2)cc1 [Example 611, N-(2-methoxyethyl)-4-({[4-(4-morpholin-4-yl-6-piperidin-1-yl-1,3,5-triazin-2-yl)phenyl]carbamoyl}amino)benzamide]
